Experimental data taken from ChEMBL document CHEMBL6092211, “Discovery and evaluation of novel SHIP-1 inhibitors” (Bioorg Med Chem, 2024).

Assays:
[1] = molecular target: T1, Phosphatidylinositol 3,4,5-trisphosphate 5-phosphatase 1 (Homo sapiens, UniProt Q92835); assay: Inhibition of human SHIP-1 (397 to 715 residues) catalytic domain expressed in Rosetta DE3 BL21 cells using 1-(1,2-dioctanoylphosphatidyl) inositol-3,4,5-trisphosphate as substrate by malachite green based spectramax microplate reader analysis
T1 sequence (Q92835 whole entry): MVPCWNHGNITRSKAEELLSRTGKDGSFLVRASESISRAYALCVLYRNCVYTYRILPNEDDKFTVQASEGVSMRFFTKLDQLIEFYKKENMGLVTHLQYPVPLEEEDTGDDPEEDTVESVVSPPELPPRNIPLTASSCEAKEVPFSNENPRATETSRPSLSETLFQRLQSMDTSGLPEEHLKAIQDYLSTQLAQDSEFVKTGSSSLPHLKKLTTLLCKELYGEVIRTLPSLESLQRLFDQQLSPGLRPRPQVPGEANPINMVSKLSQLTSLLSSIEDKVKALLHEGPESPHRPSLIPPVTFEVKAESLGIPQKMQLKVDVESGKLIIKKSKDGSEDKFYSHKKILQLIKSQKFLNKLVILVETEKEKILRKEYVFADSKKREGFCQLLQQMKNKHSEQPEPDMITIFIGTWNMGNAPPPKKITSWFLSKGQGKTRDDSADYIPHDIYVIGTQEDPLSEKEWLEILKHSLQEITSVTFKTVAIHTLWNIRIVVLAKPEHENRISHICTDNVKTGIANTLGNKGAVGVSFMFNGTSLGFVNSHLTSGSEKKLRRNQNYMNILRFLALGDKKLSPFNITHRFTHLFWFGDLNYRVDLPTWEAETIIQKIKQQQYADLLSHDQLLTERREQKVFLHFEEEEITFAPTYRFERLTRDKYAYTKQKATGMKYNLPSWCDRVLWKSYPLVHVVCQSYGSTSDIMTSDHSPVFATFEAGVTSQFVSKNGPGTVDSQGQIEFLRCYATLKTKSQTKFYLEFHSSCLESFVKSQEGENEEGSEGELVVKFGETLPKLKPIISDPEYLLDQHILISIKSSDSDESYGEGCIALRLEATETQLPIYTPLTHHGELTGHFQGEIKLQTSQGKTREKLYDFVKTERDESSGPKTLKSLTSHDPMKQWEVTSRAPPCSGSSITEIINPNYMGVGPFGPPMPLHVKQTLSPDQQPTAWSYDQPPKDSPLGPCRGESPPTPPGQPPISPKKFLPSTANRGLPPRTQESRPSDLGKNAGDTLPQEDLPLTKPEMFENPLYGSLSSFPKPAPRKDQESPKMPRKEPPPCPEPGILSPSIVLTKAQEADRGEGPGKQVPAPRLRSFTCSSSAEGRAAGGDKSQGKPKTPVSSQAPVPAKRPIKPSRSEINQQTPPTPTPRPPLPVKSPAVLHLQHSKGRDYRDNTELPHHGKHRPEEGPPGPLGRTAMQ

[2] = molecular target: T1, Phosphatidylinositol 3,4,5-trisphosphate 5-phosphatase 1; assay: Inhibition of SHIP-1 (unknown origin) using PtdIns(3,4,5)P3 as substrate by malachite green solution based […] analysis
[3] = molecular target: T1, Phosphatidylinositol 3,4,5-trisphosphate 5-phosphatase 1; assay: Inhibition of recombinant SHIP-1 (unknown origin) using PtdIns(3,4,5)P3 as substrate incubated for 30 mins by malachite green solution based analysis
HMC3 [4] = assay: cells; details: Homo sapiens, HMC3, 48 h
HMC3 [5] = assay: cells; details: Homo sapiens, HMC3, 48 h; remark: listed apart in the source
[6] = Cytotoxicity against human HMC3 cells assessed as cell count incubated for 48 hrs by Hoechst-33342 staining based analysis; assay type: toxicity
[7] = molecular target: T1, Phosphatidylinositol 3,4,5-trisphosphate 5-phosphatase 1; assay: Competitive inhibition of human SHIP-1 (397 to 715 residues) catalytic domain expressed in Rosetta DE3 BL21 cells assessed as inhibition constant by Lineweaver-Burk plot analysis; assay type: cell-based
[8] = molecular target: T2, Phosphatidylinositol 3,4,5-trisphosphate 5-phosphatase 2 (Homo sapiens, UniProt O15357); assay: Inhibition of recombinant SHIP-2 (unknown origin) using PtdIns(3,4,5)P3 as substrate incubated for 30 mins by malachite green solution based analysis
T2 sequence (O15357 whole entry): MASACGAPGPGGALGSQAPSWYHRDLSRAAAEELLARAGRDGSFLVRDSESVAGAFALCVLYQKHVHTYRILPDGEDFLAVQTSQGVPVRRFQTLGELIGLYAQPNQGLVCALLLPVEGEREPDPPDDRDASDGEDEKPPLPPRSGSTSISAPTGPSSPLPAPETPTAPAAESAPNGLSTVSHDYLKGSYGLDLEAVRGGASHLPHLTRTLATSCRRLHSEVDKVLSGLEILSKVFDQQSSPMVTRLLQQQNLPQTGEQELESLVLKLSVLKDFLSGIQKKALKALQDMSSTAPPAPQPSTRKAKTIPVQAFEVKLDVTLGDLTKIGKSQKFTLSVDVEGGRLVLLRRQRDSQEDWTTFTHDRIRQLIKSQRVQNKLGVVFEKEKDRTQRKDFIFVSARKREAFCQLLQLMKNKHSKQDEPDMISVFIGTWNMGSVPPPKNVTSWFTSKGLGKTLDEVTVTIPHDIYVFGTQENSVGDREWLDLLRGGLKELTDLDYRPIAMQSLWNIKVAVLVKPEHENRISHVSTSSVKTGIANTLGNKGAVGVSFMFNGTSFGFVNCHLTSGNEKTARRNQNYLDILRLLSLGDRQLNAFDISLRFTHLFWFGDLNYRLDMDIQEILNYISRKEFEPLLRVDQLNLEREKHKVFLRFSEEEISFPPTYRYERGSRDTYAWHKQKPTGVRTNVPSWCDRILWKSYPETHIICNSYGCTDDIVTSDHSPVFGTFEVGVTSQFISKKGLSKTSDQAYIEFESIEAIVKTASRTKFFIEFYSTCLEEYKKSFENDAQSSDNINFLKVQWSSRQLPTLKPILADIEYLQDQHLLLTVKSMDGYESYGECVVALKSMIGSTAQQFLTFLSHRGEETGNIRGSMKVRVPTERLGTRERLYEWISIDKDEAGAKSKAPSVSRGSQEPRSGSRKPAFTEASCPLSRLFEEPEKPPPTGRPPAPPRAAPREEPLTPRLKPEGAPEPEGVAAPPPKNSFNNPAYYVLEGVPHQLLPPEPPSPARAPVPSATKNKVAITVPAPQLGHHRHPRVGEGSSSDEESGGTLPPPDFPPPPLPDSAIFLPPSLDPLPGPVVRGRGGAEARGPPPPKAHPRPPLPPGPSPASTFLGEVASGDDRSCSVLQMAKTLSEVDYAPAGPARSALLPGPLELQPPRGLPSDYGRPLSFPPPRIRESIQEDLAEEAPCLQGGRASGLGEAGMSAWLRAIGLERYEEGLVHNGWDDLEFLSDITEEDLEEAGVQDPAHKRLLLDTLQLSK

[9] = molecular target: T1, Phosphatidylinositol 3,4,5-trisphosphate 5-phosphatase 1; assay: Inhibition of SHIP-1 (unknown origin) by malachite green solution based […] analysis
[10] = molecular target: T2, Phosphatidylinositol 3,4,5-trisphosphate 5-phosphatase 2; assay: Inhibition of human SHIP-2 (420 to 732 residues) catalytic domain expressed in Rosetta DE3 BL21 cells using -(1,2-dioctanoylphosphatidyflinosito1-3,4,5-trisphosphate as substrate by malachite green based spectramax microplate reader analysis

IC50 [1] [µM]	SMILES	also measured
15.4	N#CC1=C2N=C(N)c3ccccc3N2C2=C(C(=O)CCC2)C1c1cccc(Cl)c1 (stereo not given)	–
65.5	N#CC1=C2N=C(N)c3ccccc3N2C2=C(C(=O)CCC2)C1c1cccnc1 (stereo not given)	–
6.1	N#CC1=C2N=C(N)c3ccccc3N2C2=C(C(=O)CCC2)C1c1ccc(-c2ccccc2)cc1 (stereo not given)	EC50 (HMC3 [4]): 20 µM; EC50 (HMC3 [5]): 2000 nM; IC50 at 48 h [6]: 19.9 µM; Ki [7]: 3.2 µM
40.2	N#CC1=C2N=C(N)c3ccccc3N2C2=C(C(=O)CCC2)C1c1cc2ccccc2s1 (stereo not given)	–
86.8	N#CC1=C2N=C(N)c3ccccc3N2C2=C(C(=O)CC(c3cccs3)C2)C1c1cccnc1 (stereo not given)	IC50 [10]: > 200 µM
> 40	N#CC1=C2N=C(N)c3ccccc3N2C2=C(C(=O)CCC2)C1c1ccc(F)c(F)c1 (stereo not given)	–
28.2	N#CC1=C2N=C(N)c3ccccc3N2C2=C(C(=O)CCC2)C1c1cc2ccccc2o1 (stereo not given)	–
36.7	N#CC1=C2N=C(N)c3ccccc3N2C2=C(C(=O)CCC2)C1c1cccc([N+](=O)[O-])c1 (stereo not given)	–
33.6	CC(C)c1ccc(C2C(C#N)=C3N=C(O)c4ccccc4N3C3=C2C(=O)CCC3)cc1 (stereo not given)	–
10.2	CC(C)c1ccc(C2C(C#N)=C3N=C(N)c4ccccc4N3C3=C2C(=O)CC(C)(C)C3)cc1 (stereo not given)	–
46.7	CC(=O)C1=C(C)Nc2sc(C(=O)c3ccc(Cl)c(Cl)c3)c(N)c2C1c1cccnc1 (stereo not given)	–
23.4	N#CC1=C2N=C(N)c3ccccc3N2C2=C(C(=O)CCC2)C1c1cc(Br)ccc1F (stereo not given)	–
13.2	CC(C)c1ccc(C2C(C#N)=C3N=C(N)c4ccccc4N3C3=C2C(=O)CCC3)cc1 (stereo not given)	–

Second part, the compound before the results:

SMILES	IC50 [1] [µM]	also measured
Cc1oc(-c2ccccc2Cl)nc1Cn1cccc1C1=NC(c2ccccc2)CO1 (stereo not given)	46.6	–
CC(C)CCC[C@@H](C)[C@H]1CC[C@H]2[C@@H]3CC[C@H]4C[C@H](N)CC[C@]4(C)[C@H]3CC[C@]12C	–	IC50 [2]: 13.9 µM
CSc1ccc2c(c1)c(CCN)c(C)n2Cc1ccccc1Cl	–	IC50 [3]: 500 µM
CC1(C)CC(=O)C2=C(C1)N1C(=C(C#N)C2c2ccc(-c3ccccc3)cc2)N=C(N)c2ccccc21 (stereo not given)	17.7	–
O[C@H](c1cc(-c2ccccc2)nc2c1ccc1ccccc12)[C@@H]1CCCCN1	–	IC50 [8]: 30 µM; IC50 [3]: 30 µM
C[C@@]12CCC[C@H]1[C@@H]1CC[C@H]3C[C@H](N)[C@H](N)C[C@]3(C)[C@H]1CC2	–	IC50 [9]: 6 µM
N#CC1=C2N=C(N)c3ccccc3N2C2=C(C(=O)CCC2)C1c1nc2ccccc2s1 (stereo not given)	> 40	–
N#CC1=C2N=C(N)c3ccccc3N2C2=C(C(=O)CCC2)C1c1ccc(Cl)cc1Cl (stereo not given)	39	–
O[C@H](c1cc(C23CC4CC(CC(C4)C2)C3)nc2c(Cl)cc(Cl)cc12)[C@@H]1CCCCN1	–	IC50 [8]: 35 µM; IC50 [3]: 63 µM
C[C@@]12CCC[C@H]1[C@@H]1CC[C@H]3C[C@H](N)CC[C@]3(C)[C@H]1CC2	–	IC50 [9]: 16 µM
